6 compounds from patent publication US20250206761A1, “HALOINDOLE MACROCYCLIC COMPOUNDS FOR THE TREATMENT OF CANCER” (Hoffmann-La Roche Inc., priority 2022, published 2025) can be followed below.

Each structure is given as a SMILES string.

The subject of test [1] is phosphorylation of ERK, KRAS G12D in AGS cells. Description: pERK inhibition assay, KRAS G12D. Format: cell-based, human. Particulars: Homo sapiens, 4 hours. As for the experimental part: This assay is to measure the ability of test compounds in inhibiting the phosphorylation of ERK, the downstream signaling of KRAS G12C in NCJ-H358 cells, KRAS G12D in AGS cells, and KRAS G12V in SW620. NCJ-H358 (ATCC-CRL5807) cells, AGS (ATCC-CRL-1739) cells, SW620 (ATCC-CCL-227) cells were all grown and maintained using RPMI-1640 medium (Thermo Fisher Scientific) with 10% fetal bovine serum and 1% penicillin/streptomycin. On the day prior to compound addition, cells were plated in tissue culture-treated 96 well plates (Corning-3699) at a density of 30,000 cell/well, 20,000 cell/well, 30,000 cell/well for NCJ-H358, AGS and SW620 respectively, and allowed for attachment overnight. Diluted compounds were then added in a final concentration of 0.5% DMSO. After 4 hours of incubation, the medium was removed, 100 μL of 4% formaldehyde was added, and the assay plates were incubated at room temperature for 20 minutes. The plates were then washed once with phosphate buffered saline (PBS), and permeabilized with 100 μL of chilled methanol for 10 minutes. Non-specific antibody binding to the plates was blocked using 50 μL 1×BSA blocking buffer (Thermo-37520, 10-fold dilution by Phosphate-Buffered Saline Tween (PBST) for at least 1 hour at room temperature.
The amount of phosphor-ERK was determined using an antibody specific for phosphorylated form of ERK. Primary antibody (pERK, CST-4370, Cell Signaling Technology) was diluted 1:300 in blocking buffer, with 50 μL aliquoted to each well, and incubated overnight at 4′° C. Cells was washed five times for 5 minutes with PBST. Secondary antibody ([…] anti-rabbit IgG, CST-7074, Cell Signaling Technology) was diluted 1:1000 in blocking buffer, and 50 μL was added to each well and incubated 1-2 hrs at room temperature. Cells was washed 5 times for 5 minutes with PBST, 100 μL TMB ELISA substrate (abcam-ab171523) were added and gently shake for 20 minutes. 50 μL stop solution (abcam-ab171529) were added, and then read the signal (OD450) by EnVision.
IC50 was determined by fitting a 4-parameter sigmoidal concentration response model.

The subject of test [2] is AGS (ATCC-CRL-1739) cells. Description: Cell viability assay, G12D (AGS). It counts as cell-based, human. The conditions noted are these: Homo sapiens, KRAS cell viability, 72 hrs, Cell Counting Kit-8. In a few lines: (§1)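 Seed NCI-H358 5,000/well, AGS and SW620 2,000/well; overnight. Compound, 0.5% DMSO final, 72 hrs. CCK-8 2 hrs, OD450–OD650. IC50: 4-parameter fit.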
(In general: Tetrazolium assays rely on reduction of a dye to a coloured formazan, in cell work by metabolically active cells.)

For test [3], the target named is KRAS G12V binding to BRAF (Homo sapiens (Human), UniProt P01116+P62937, G12V). Description: KRAS-BRAF with CYPA (500 nM) interaction assay (TR-FRET), G12V. Format: biochemical. In a few lines:
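A TR-FRET assay measured how compound, in the presence of CYPA, disrupts binding of GMPPNP-loaded 6His-KRAS G12V to BRAF. The buffer contained 25 mM HEPES PH=7.4, 0.002% Tween20, 0.1% BSA, 100 mM NaCl, 5 mM MgCl2 and 10 μM GMPPNP. Compounds ran as a 16-point 3-fold dilution series from 10 μM for 3 hours.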
Background: In TR-FRET formats the signal depends on donor and acceptor labels being close together.

The next test concerns SW620 (ATCC-CCL-227). Description: Cell viability assay, G12V (SW620). It counts as cell-based, human. The conditions noted are these: Homo sapiens, SW-620; KRAS cell viability, SW620, 72 hrs, Cell Counting Kit-8. In a few lines:
as §1

For test [4], the target named is KRAS G12D binding to BRAF (Homo sapiens (Human), UniProt P01116+P62937, G12D). The experiment in a line: KRAS-BRAF with CYPA (500 nM) interaction assay (TR-FRET), G12D. Format: biochemical.
KRAS G12D binding to BRAF, sequence (P01116-2 other isoform, or with tags, fused parts or gaps G12D): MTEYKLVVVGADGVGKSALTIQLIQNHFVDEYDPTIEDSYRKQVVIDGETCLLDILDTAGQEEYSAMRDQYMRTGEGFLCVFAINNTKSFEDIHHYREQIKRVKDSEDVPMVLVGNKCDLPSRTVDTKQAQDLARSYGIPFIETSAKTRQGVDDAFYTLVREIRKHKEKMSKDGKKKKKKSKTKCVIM
KRAS G12D binding to BRAF, sequence (P62937 whole entry): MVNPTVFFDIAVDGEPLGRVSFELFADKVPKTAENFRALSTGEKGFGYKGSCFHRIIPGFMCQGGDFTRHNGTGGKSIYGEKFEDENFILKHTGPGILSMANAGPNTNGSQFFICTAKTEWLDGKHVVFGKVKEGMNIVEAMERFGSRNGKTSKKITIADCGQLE
The test system of test [5] is NCI-H358 (ATCC-CRL5807) cells. The experiment in a line: Cell viability assay, G12C (NCI-H358). The conditions noted are these: Homo sapiens; KRAS cell viability, NCI-H358, 72 hrs, Cell Counting Kit-8. Format: cell-based, human. In a few lines:
as §1

A further test addresses KRAS G12C-BRAF complex (Homo sapiens (Human), UniProt P01116+P62937, G12C). Description: KRAS-BRAF with CYPA (500 nM) interaction assay (TR-FRET), G12C. Format: biochemical.
In test [6] the test system is phosphorylation of ERK, KRAS G12V in SW620. Description: pERK inhibition assay, KRAS G12V. Particulars: Homo sapiens, SW-620, SW620, 4 hours. Format: cell-based, human. In a few lines: (§2)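 Plate cells, attach overnight; add compound (0.5% DMSO) for 4 h; fix in 4% formaldehyde, permeabilize with chilled methanol; block; incubate pERK antibody overnight at 4 °C, then HRP secondary; develop with TMB, stop, read OD450; fit 4-parameter curve for IC50.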

In test [7] the test system is phosphorylation of ERK, KRAS G12C in NCJ-H358 cells. The experiment in a line: pERK inhibition assay, KRAS G12C. Format: cell-based, human. Particulars: Homo sapiens, 4 hours. Summed up: as §2

KRAS G12V binding to BRAF, sequence (P01116-2 other isoform, or with tags, fused parts or gaps G12V): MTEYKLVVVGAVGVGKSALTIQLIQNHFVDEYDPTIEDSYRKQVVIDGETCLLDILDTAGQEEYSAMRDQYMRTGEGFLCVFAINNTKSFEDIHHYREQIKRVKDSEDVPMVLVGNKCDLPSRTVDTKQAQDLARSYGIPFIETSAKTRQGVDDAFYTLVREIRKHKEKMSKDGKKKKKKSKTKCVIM
KRAS G12V binding to BRAF, sequence (P62937 whole entry): as the sequence (P62937 whole entry) above
KRAS G12C-BRAF complex, sequence (P01116-2 other isoform, or with tags, fused parts or gaps G12C): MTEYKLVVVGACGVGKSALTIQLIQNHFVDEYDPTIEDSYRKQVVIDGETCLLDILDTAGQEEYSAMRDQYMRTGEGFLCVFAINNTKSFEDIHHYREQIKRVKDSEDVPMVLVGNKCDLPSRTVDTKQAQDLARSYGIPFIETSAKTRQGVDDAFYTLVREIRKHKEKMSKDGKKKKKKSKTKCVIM
KRAS G12C-BRAF complex, sequence (P62937 whole entry): as the sequence (P62937 whole entry) above

As for `CO[C@@H](C)c1ncc(N2CCN(C)CC2)cc1-c1c2c3cc(c(F)cc3n1CC(F)(F)F)-c1csc(n1)C[C@H](NC(=O)[C@H](C(C)C)N(C)C(=O)[C@H]1CCN(C(=O)[C@H](F)Cl)C1)C(=O)N1CCC[C@H](N1)C(=O)OCC(C)(C)C2` (atropisomer, axis not shown; (M)) [Example 2, (3S)-1-[(2R)-2-chloro-2-fluoro-acetyl]-N-[(1S)-1-[[(7S,13S)-24-fluoro-(20M)-20-[2-[(1S)-1-methoxyethyl]-5-(4-methylpiperazin-1-yl)-3-pyridyl]-17,17-dimethyl-8,14-dioxo-21-(2,2,2-trifluoroethyl)-15-oxa-4-thia-9,21,27,28-tetrazapentacyclo[17.5.2.1^2,5.1^9,13.0^22,26]octacosa-1(25),2,5(28),19,22(26),23-hexaen-7-yl]carbamoyl]-2-methyl-propyl]-N-methyl-pyrrolidine-3-carboxamide], the IC50 (usually the midpoint of a concentration-inhibition curve) in test [1] was found to be 38 nM; in test [2], 822 nM; in [3], 1860 nM; in the test on SW620 (ATCC-CCL-227), 175 nM; in test [4], 3.98 µM; in [5] it was 2 nM. Moreover, the IC50 against KRAS G12C-BRAF complex worked out at 89 nM; in test [6] it was 20 nM; in [7], 2 nM.

On to `CO[C@@H](C)c1ncc(N2CCN(CC(F)(F)F)CC2)cc1-c1c2c3cc(c(F)cc3n1CC(F)(F)F)-c1csc(n1)C[C@H](NC(=O)[C@H](C(C)C)N1CCC3(CN(C(=O)[C@H](F)Cl)C3)C1=O)C(=O)N1CCC[C@H](N1)C(=O)OCC(C)(C)C2` (atropisomer, axis not shown; (M)) [Example 46, (2S)-2-[2-[(2R)-2-chloro-2-fluoro-acetyl]-5-oxo-2,6-diazaspiro[3.4]octan-6-yl]-N-[(7S,13S)-24-fluoro-(20M)-20-[2-[(1S)-1-methoxyethyl]-5-[4-(2,2,2-trifluoroethyl)piperazin-1-yl]-3-pyridyl]-17,17-dimethyl-8,14-dioxo-21-(2,2,2-trifluoroethyl)-15-oxa-4-thia-9,21,27,28-tetrazapentacyclo[17.5.2.1^2,5.1^9,13.0^22,26]octacosa-1(25),2,5(28),19,22(26),23-hexaen-7-yl]-3-methyl-butanamide], for which the IC50 was determined as 299 nM in test [1]; 300 nM in test [2]; 1230 nM in test [3]; 168 nM in the test with SW620 (ATCC-CCL-227); 1.06 µM in test [4]; 3 nM in test [5]. The IC50 stood at 129 nM at KRAS G12C-BRAF complex, 627 nM in test [6] and 9 nM in [7].

Take `CCn1c(-c2cc(N3CCN(C)CC3)cnc2[C@H](C)OC)c2c3cc(c(F)cc31)-c1csc(n1)C[C@H](NC(=O)[C@H](C(C)C)N1CC[C@]3(CCN(C(=O)[C@H](F)Cl)C3)C1=O)C(=O)N1CCC[C@H](N1)C(=O)OCC(C)(C)C2` (atropisomer, axis not shown; (M)) [Example 31, (2S)-2-[(5S)-7-[(2R)-2-chloro-2-fluoro-acetyl]-1-oxo-2,7-diazaspiro[4.4]nonan-2-yl]-N-[(7S,13S)-21-ethyl-24-fluoro-(20M)-20-[2-[(1S)-1-methoxyethyl]-5-(4-methylpiperazin-1-yl)-3-pyridyl]-17,17-dimethyl-8,14-dioxo-15-oxa-4-thia-9,21,27,28-tetrazapentacyclo[17.5.2.1^2,5.1^9,13.0^22,26]octacosa-1(25),2,5(28),19,22(26),23-hexaen-7-yl]-3-methyl-butanamide]: the IC50 in [1] was 24 nM; in test [2], 237 nM; in [3] it was 1980 nM; with SW620 (ATCC-CCL-227), 44 nM; in test [4], more than 10 µM; in test [5], less than 1 nM. Moreover, the IC50 on KRAS G12C-BRAF complex is 44 nM; in [6] it was 12 nM; in [7], 5 nM.

`CCn1c(-c2cc(N3CCN(C)CC3)cnc2[C@H](C)OC)c2c3cc(c(F)cc31)-c1csc(n1)C[C@H](NC(=O)[C@H](C(C)C)N(C)C(=O)[C@H]1CCN(C(=O)[C@H](F)Cl)C1)C(=O)N1CCC[C@H](N1)C(=O)OCC(C)(C)C2` (atropisomer, axis not shown; (M)) [Example 32, (3S)-1-[(2R)-2-chloro-2-fluoro-acetyl]-N-[(1S)-1-[[(7S,13S)-21-ethyl-24-fluoro-(20M)-20-[2-[(1S)-1-methoxyethyl]-5-(4-methylpiperazin-1-yl)-3-pyridyl]-17,17-dimethyl-8,14-dioxo-15-oxa-4-thia-9,21,27,28-tetrazapentacyclo[17.5.2.1^2,5.1^9,13.0^22,26]octacosa-1(25),2,5(28),19,22(26),23-hexaen-7-yl]carbamoyl]-2-methyl-propyl]-N-methyl-pyrrolidine-3-carboxamide]: the IC50 is 14 nM in [1]; 792 nM in [2]; more than 10000 nM in test [3]; 430 nM in the test with SW620 (ATCC-CCL-227); more than 10 µM in [4]; less than 1 nM in test [5]. In addition, the IC50 came to 56 nM on KRAS G12C-BRAF complex, 21 nM in test [6] and 1 nM in test [7].

Regarding `CO[C@@H](C)c1ncc(N2CCN(CC(F)(F)F)CC2)cc1-c1c2c3cc(c(F)cc3n1CC(F)(F)F)-c1csc(n1)C[C@H](NC(=O)[C@H](C(C)C)N(C)C(=O)[C@H]1CCN(C(=O)[C@H](F)Cl)C1)C(=O)N1CCC[C@H](N1)C(=O)OCC(C)(C)C2` (atropisomer, axis not shown; (M)) [Example 26, (3S)-1-[(2R)-2-chloro-2-fluoro-acetyl]-N-[(1S)-1-[[(7S,13S)-24-fluoro-(20M)-20-[2-[(1S)-1-methoxyethyl]-5-[4-(2,2,2-trifluoroethyl)piperazin-1-yl]-3-pyridyl]-17,17-dimethyl-8,14-dioxo-21-(2,2,2-trifluoroethyl)-15-oxa-4-thia-9,21,27,28-tetrazapentacyclo[17.5.2.1^2,5.1^9,13.0^22,26]octacosa-1(25),2,5(28),19,22(26),23-hexaen-7-yl]carbamoyl]-2-methyl-propyl]-N-methyl-pyrrolidine-3-carboxamide], the IC50 in test [1] was 15 nM; in test [2], 260 nM; in test [3], 954 nM; in the test with SW620 (ATCC-CCL-227) it was 34 nM; in test [4], more than 10 µM; in [5], 1 nM. In addition, the IC50 at KRAS G12C-BRAF complex was determined as 46 nM; in [6], 14 nM; in test [7], 7 nM.

As for `CCn1c(-c2cccnc2COC)c2c3cc(ccc31)-c1cc(O)cc(c1)C[C@H](NC(=O)[C@H](C(C)C)N(C)C(=O)C1CN(C(=O)[C@H](F)Cl)C1)C(=O)N1CCC[C@H](N1)C(=O)OCC(C)(C)C2` [RM461-A, reference compound], the IC50 in [1] was more than 10000 nM; in test [2], 7920 nM; in [3], 6080 nM; in test [4] it was more than 10 µM; in test [5], 45 nM; on KRAS G12C-BRAF complex, 27 nM. The compound further came in with an IC50 in test [7] of 49 nM.
